The results in this text go back to patent US20210053957A1, “HERBICIDAL COMPOUNDS” (SYNGENTA PARTICIPATIONS AG, priority 2018, published 2021).

What all share (experiment): Post-emergence efficacy, glasshouse spray test
Holding throughout (type): in vivo

Experiment [1] deals with Amaranthus palmeri (AMAPA). The conditions noted are these: Amaranthus palmeri, post-emergence, 312 h; Application Rate 500 g/Ha; evaluated after 13 days; read-out: Control of weed species after post-emergence application, AMAPA (100=total damage to plant; 0=no damage to plant). In a few lines:
(§1)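 Seeds were sown in pots and grown 14 days in a glasshouse (24/16° C day/night, 14 h light, 65% humidity). Plants were then sprayed with compound diluted from a 50 g/l IF50/acetone stock using 0.25% or 1% Empicol ESC70 plus 1% ammonium sulphate, and rated for damage 13 days later.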

A further experiment has as its system Eleusine indica (ELEIN). To be noted: Eleusine indica, post-emergence, 312 h; Application Rate 500 g/Ha; evaluated after 13 days; read-out: Control of weed species after post-emergence application, ELEIN (100=total damage to plant; 0=no damage to plant). In a few lines: as §1
Experiment [2] deals with Digitaria sanguinalis (DIGSA). To be noted: Digitaria sanguinalis, post-emergence, 312 h; Application Rate 500 g/Ha; evaluated after 13 days; read-out: Control of weed species after post-emergence application, DIGSA (100=total damage to plant; 0=no damage to plant). The method in brief: as §1
In experiment [3] the test system is Chenopodium album (CHEAL). To be noted: Chenopodium album, post-emergence, 312 h; Application Rate 500 g/Ha; evaluated after 13 days; read-out: Control of weed species after post-emergence application, CHEAL (100=total damage to plant; 0=no damage to plant). The method in brief: as §1
The test system of the next experiment is Lolium perenne (LOLPE). To be noted: Lolium perenne, post-emergence, 312 h; Application Rate 500 g/Ha; evaluated after 13 days; read-out: Control of weed species after post-emergence application, LOLPE (100=total damage to plant; 0=no damage to plant). The method in brief: as §1
Experiment [4] concerns Euphorbia heterophylla (EPHHL). The conditions noted are these: Euphorbia heterophylla, post-emergence, 312 h; Application Rate 500 g/Ha; evaluated after 13 days; read-out: Control of weed species after post-emergence application, EPHHL (100=total damage to plant; 0=no damage to plant). The method in brief:
as §1

For experiment [5], the system named is Ipomoea hederacea (IPOHE). The conditions noted are these: Ipomoea hederacea, post-emergence, 312 h; Application Rate 500 g/Ha; evaluated after 13 days; read-out: Control of weed species after post-emergence application, IPOHE (100=total damage to plant; 0=no damage to plant). The method in brief: as §1
The test system of experiment [6] is Echinochloa crus-galli (ECHCG). To be noted: Echinochloa crus-galli, post-emergence, 312 h; Application Rate 500 g/Ha; evaluated after 13 days; read-out: Control of weed species after post-emergence application, ECHCG (100=total damage to plant; 0=no damage to plant). In a few lines:
as §1

Another experiment concerns Setaia fabei (SETFA). The conditions noted are these: Setaria faberi, post-emergence, 312 h; Application Rate 500 g/Ha; evaluated after 13 days; read-out: Control of weed species after post-emergence application, SETFA (100=total damage to plant; 0=no damage to plant). The method in brief: as §1

Turning to `O=C(O)CC[n+]1ccc(-c2ccsc2)cn1` [Compound A63], the pest or weed control at 500 g/ha is 0% in [1]; 20% with Eleusine indica (ELEIN); 20% in [2]; 30% in experiment [3]; 10% in the experiment on Lolium perenne (LOLPE); 40% in [4]. In addition, the pest or weed control at 500 g/ha in experiment [5] was 20%; in [6], 20%; in the experiment on Setaia fabei (SETFA) it was 30%.

As to `Cn1nc(C(F)(F)F)cc1-c1cc[n+](CCS(=O)(=O)[O-])nc1` [Compound A30], the pest or weed control at 500 g/ha came out at 80% in experiment [1]; 40% in the experiment on Eleusine indica (ELEIN); 30% in [2]; 40% in experiment [3]; 50% in the experiment on Lolium perenne (LOLPE); 40% in experiment [4]. The figures for the pest or weed control at 500 g/ha (in [5]; in [6]; in the experiment with Setaia fabei (SETFA)) were 20%, 20% and 40%, respectively.

Consider `O=S(=O)([O-])CC[n+]1ccc(-c2nccs2)cn1` [Compound A1, 2-(4-thiazol-2-ylpyridazin-1-ium-1-yl)ethanesulfonate], for which the pest or weed control at 500 g/ha was determined as 100% in experiment [1]; 50% in the experiment with Eleusine indica (ELEIN); 100% in experiment [2]; 70% in [3]; 90% in the experiment on Lolium perenne (LOLPE); 70% in experiment [4]. Moreover, the pest or weed control at 500 g/ha in experiment [5] came out at 50%; in experiment [6], 60%; in the experiment with Setaia fabei (SETFA), 50%.

For the molecule `O=S(=O)([O-])CC[n+]1ccc(-c2cscn2)cn1` [Compound A61], the pest or weed control at 500 g/ha in [1] was determined as 100%; in the experiment on Eleusine indica (ELEIN), 60%; in experiment [2], 80%; in [3], 70%; in the experiment with Lolium perenne (LOLPE), 30%; in [4], 40%. Besides, the pest or weed control at 500 g/ha in experiment [5] is 20%; in [6], 50%; with Setaia fabei (SETFA), 70%.

For the molecule `O=S(=O)([O-])CC[n+]1ccc(-c2cocn2)cn1` [Compound A22, 2-(4-oxazol-4-ylpyridazin-1-ium-1-yl)ethanesulfonate], the pest or weed control at 500 g/ha in [1] was 30%; in the experiment on Eleusine indica (ELEIN), 20%; in [2], 20%; in experiment [3], 20%; in the experiment with Lolium perenne (LOLPE), 10%; in [4], 30%. Moreover, the values for the pest or weed control at 500 g/ha (in experiment [5]; in experiment [6]; in the experiment with Setaia fabei (SETFA)) were 10%, 20% and 20%, respectively.

Turning to `CCOP(=O)(O)CC[n+]1ccc(-c2ncco2)cn1` [Compound A85], the pest or weed control at 500 g/ha in [1] was 10%; in the experiment on Eleusine indica (ELEIN), 30%; in [2], 40%; in experiment [3], 0%; in the experiment with Lolium perenne (LOLPE), 10%; in experiment [4] it was 20%. The pest or weed control at 500 g/ha in experiment [5] stood at 30%; in [6] it was 20%; in the experiment on Setaia fabei (SETFA), 20%.

Turning to `Nc1nsc(-c2cc[n+](CCS(=O)(=O)[O-])nc2)n1` [Compound A141], the pest or weed control at 500 g/ha was found to be 100% in [1]; 10% with Eleusine indica (ELEIN); 10% in experiment [2]; 100% in [3]; 30% in the experiment with Lolium perenne (LOLPE); 100% in experiment [4]. Besides, the pest or weed control at 500 g/ha is 100% in [5], 30% in experiment [6] and 50% in the experiment on Setaia fabei (SETFA).
